Laboratory results from patent publication US20030022932A1, “Methods for regulating bacteria” (priority 2001, published 2003).

Tested on: Pseudomonas aeruginosa
Assay: agar bead model of rat chronic respiratory infection (quantitative lung pathology, histopathology)
Format: in vivo
Conditions: 7 days post-infection
Procedure: The following Examples illustrate the effect of normal flora and the presence of autoinducer-2 (AI-2) on Pseudomonas aeruginosa infection in the agar bead model of rat chronic respiratory infection. Groups of 15 rats (male Sprague-Dawley 180-200 grams) were inoculated intratracheally with 0.05 mL suspensions of bacteria embedded in agar beads. Seven days post-infection each group was treated as follows: (1) five rats—lungs removed for quantitative microbiology; (2) five rats—bronchoaveolar lavage (BAL) were obtained and analyzed for total cell counts, neutrophils, neutrophil elastase and AI-2 activity; and (3) five rats—lungs removed for histology (quantitative pathology). In the microphotographs shown in FIGS. 4-7, the dark areas indicate regions of consolidation, an indication of tissue damage. An α-hemolytic Streptococcus isolate (designated CFX5) from a cystic fibrosis patient was used to supply naturally synthesized AI-2 in vivo.
Rats inoculated with agar beads containing Pseudomonas aeruginosa alone yielded the quantitative pathology shown in FIG. 3 (PAO), and the histopathology shown in the microphotograph of FIG. 4
Rats inoculated with agar beads containing Pseudomonas aeruginosa alone and exposed to synthetic AI-2 yielded the quantitative pathology shown in FIG. 3 (PAO/AI-2), and the histopathology shown in FIG. 5.
Rats inoculated with agar beads containing Pseudomonas aeruginosa +α-hemolytic Streptococcus (CFX5) yielded the quantitative pathology shown in FIG. 3 (PAO/NF), and the histopathology shown in FIG. 6.
Rats inoculated with agar beads containing Pseudomonas aeruginosa +α-hemolytic Streptococcus (CFX5), treated daily for six days with aerosolized QXO18 (2-pentyl-2-cyclopenten-1-one), an AI-2 antagonist, yielded the quantitative pathology shown in FIG. 3 (PAO/NF/QXO18), and the histopathology shown in FIG. 7.

Row | Compound | lung pathology caused by Pseudomonas aeruginosa (percent of lung tissue showing consolidation) (Pseudomonas aeruginosa + α-hemolytic Streptococcus (CFX5), treated daily for six days with aerosolized compound, PAO/NF/QXO18 vs PAO/NF) | lung pathology caused by Pseudomonas aeruginosa (percent of lung tissue showing consolidation) (AI-2 supplied endogenously by co-infecting α-hemolytic Streptococcus isolate CFX5, PAO/NF) | lung pathology caused by Pseudomonas aeruginosa (percent of lung tissue showing consolidation) (rats inoculated with Pseudomonas aeruginosa alone, exposed to synthetic (exogenously supplied) AI-2, PAO/AI-2 vs PAO)
1 | CCCCCC1=CCCC1=O [2-pentyl-2-cyclopenten-1-one] | greatly diminishes the increased lung pathology | – | –
2 | autoinducer-2 [AI-2] | – | increases the lung pathology even more | increases the lung pathology
